Experiment [1] concerns TNBS-induced colitis, Balb/c mice. As to the kind of experiment: TNBS-induced model of colitis in mice, dosing from day 2, therapeutic mode. The experiment is classed as in vivo. Here is the method: (§1) Female Balb/c mice aged 8 weeks and weighing 18-20 g were housed under standard conditions. The mice were divided into groups with 8-10 mice in each group by body weight. Mice in sham group received intracolonic injection with 50% ethanol (0.1 mL) at day 0, whereas mice in other Trinitrobenzene sulfonic acid (TNBS) colitis model groups received intracolonic injection of 2% TNBS solution in ethanol (0.1 mL) at day 0. The reference compound Mesalazine (Selleck) and test articles described here were dosed from day-1 to day 6. Day 6 was the endpoint, and samples were immediately harvested for the last endpoint. Mesalazine was dissolved in distilled water (pH 7.0) and test articles were dissolved in Phosal 50 PG for delivery by oral gavage.
(§2) Body weight and Disease Activity Index (DAI) scores were recorded daily to assess the colitis. DAI score was the sum of the weight loss score, stool score and bleeding sub-scores. A blinded scoring system was employed to assess the colitis. The DAI scorer blinded to the group information and animal ID was responsible for the stool consistency and bleeding evaluations. If there was no blood visible with naked eyes, the Fecal occult blood (FOB) test was performed with a fecal occult blood test strip (the improved pyramidon method).
(§3) Colon tissue morphology, damage and healing were assessed by histopathology. The colons were harvested, mesentery and adipose tissue were carefully removed, and internal contents were removed by rinsing with cold PBS. The colons were Swiss-rolled and fixed in neutralized paraformaldehyde followed by H&E staining. Clinical pathologists reviewed the H&E staining and scored blinded with animal ID. The pathological scoring standards were: crypt architecture (normal, 0-severe crypt distortion with loss of entire crypts, 3), degree of inflammatory cell infiltration (normal, 0-dense inflammatory infiltrate, 3), muscle thickening (base of crypt sits on the muscularis mucosae, 0-marked muscle thickening present, 3), goblet cell depletion (absent, 0-present, 1) and crypt abscess (absent, 0-present, 1).
(§4) The data was compared by ANOVA with post-hoc Dunnett's multiple comparisons test using Graph Pad Prism 7.0 software (San Diego, CA, USA). P-value<0.05 was considered as statistically significant difference. For pairwise comparison of histology scores and cytokines, unpaired t-test was used to calculate statistical significance. Data was expressed as mean±standard error of mean. In figures, statistical significance is denoted by asterisks: *p<0.05 **p<0.01 ***p<0.005, ****p<0.0001.
Procedures were identical to those in Example 26, except that dosing of the compounds described herein, as well as the positive control mesalamine, began on the second day after TNBS administration, as diagrammed in FIG. 18. Animals in this scenario have developed colitis symptoms before administration of test articles. This is more similar to the clinical scenario with patients with inflammatory bowel disorder presenting with symptoms. For this reason, we refer to these conditions as “therapeutic mode”.

For experiment [2] the test system is unchanged. The experiment is described as follows: TNBS-induced model of colitis in mice, dosing from day -1, prophylactic mode. It is filed as in vivo. As to the method: as §1
As noted, dosing of the compounds described herein, as well as the positive control mesalamine, began one day before TNBS administration. Animals in this scenario have not yet developed colitis symptoms before administration of test articles. For this reason, we refer to these conditions as “prophylactic mode”.
as §2, §3
The plasma was collected at Day-1 for PK and cytokine (IL-1ß and IL-6) analysis by mandibular venipuncture.
as §4

Experiment [3] has as its system LPS induced septic shock, C57/B6L mice. As to the kind of experiment: LPS induced septic shock model in mice. The experiment is classed as in vivo. To be noted: 30 mg/kg PO in Phosal 50, 30 min before LPS 1 mg/kg, plasma 2 hours after LPS, vs vehicle. Here is the method:
In the LPS induced septic shock model in mice, the TLR4 agonist LPS is injected into the peritoneal cavity of mice, inducing production of pro-inflammatory cytokines that can be measured in blood two hours later (FIG. 2).
Female C57/B6L mice, 5 mice in each group, were injected with LPS (1 mg/kg) to induce septic shock 30 minutes after oral administration of compounds described herein (formulated in Phosal 50) or the controls dexamethasone (formulated in saline), a corticosteroid, and MCC950 (formulated in 0.5% methylcellulose), an inflammasome inhibitor. The mice were euthanized 2 hours after LPS stimulation, and the whole blood was drawn, processed to plasma, and snap frozen. Cytokine levels in plasma were determined by cytometric bead array assay.

Experiment [4] concerns R848-driven NFκB reporter (SEAP) in THP-1 cells. The experiment is described as follows: TLR7/8 (R848) stimulated NFκB reporter gene assay in THP1-Dual cells. It is filed as cell-based. Conditions: Homo sapiens, THP-1, 10 μM compound, 1 μM R848, THP1-Dual cells; read-out: R848-driven NFκB reporter gene assay (Percent inhibition at 10 μM). Here is the method: Compounds described herein are added to the human leukemic monocyte-like cell line THP-1 for bioactivity assessment. THP1-Dual cells (InvivoGen, San Diego, CA) feature the Lucia gene, a secreted luciferase reporter gene, under the control of an ISG54 minimal promoter in conjunction with five IFN-stimulated response elements. THP1-Dual cells also express a secreted embryonic alkaline phosphatase (SEAP) reporter gene driven by an IFN-β minimal promoter fused to five copies of the NF-κB consensus transcriptional response element and three copies of the c-Rel binding site. As a result, THP1-Dual cells allow the simultaneous study of the NF-κB pathway, by monitoring the activity of SEAP, and the IRF pathway, by assessing the activity of Lucia luciferase.
THP-1 dual reporter cells were grown in RPMI 1640 culture medium with 2 mM L-glutamine, 25 mM HEPES, 10% heat-inactivated fetal bovine serum, 100 μg/ml Normocin antibiotic (InvivoGen), Pen-Strep antibiotic (100 U/ml-100 μg/ml, InvivoGen). On the day of the assay, cells were seeded in a 384 flat-bottom well plate at 25,000 cells/well and incubated for 2 hours. Cells were then incubated with 10 μM of the compounds described herein or with 1 μM of IKK-16 (Selleck), a potent inhibitor of IκB kinases (IKKs) or with DMSO (vehicle control) for 2 hours, followed by the addition of the synthetic TLR7/8 agonist R848 at 1 μM and incubation for 16 hours. After incubation was concluded, the cultures supernatants were collected and IRF related activity was assessed by measurement of the Lucia luciferase, using Quanti-Luc assay (InvivoGen). NF-κB pathway activity was assessed by quantifying SEAP using Quanti-Blue assay (InvivoGen).
(In a reporter assay the amount or activity of a reporter protein is the signal.)

Setting [5] is: 30 mg/kg PO, QD, dosing from day 2.
The mark [6] stands for this setting: 30 mg/kg PO, QD, dosing from day 2, vs Vehicle group.
The mark [7] stands for this setting: 1, 3 and 10 mg/kg PO, QD, vs Vehicle group.

Turning to `CN1[C@@H](C(=O)O)CC[C@H]1[C@@H]1CSC(c2ccccc2O)=N1` [Compound I-4, (2R,5S)-5-((R)-2-(2-hydroxyphenyl)-4,5-dihydrothiazol-4-yl)-1-methylpyrrolidine-2-carboxylic acid], in experiment [1] (setting [5]), the “Disease Activity Index (DAI) scores” value is “improvement”, the “body weight (% initial weight) recovery” value is on record as “faster recovery rate” and the total histology scores result was “lower”. Moreover, in experiment [1] (setting [6]), the IL-1B in plasma result is on record as “decreased” and the IL-6 in plasma entry is reported as “decreased”. For the same compound, in experiment [1] (therapeutic mode), the “colon recovery and mucosal healing” value is “promoted the colon recovery and mucosal healing”. For the same compound, in experiment [2] (30 mg/kg, PO, QD, day -1 to day 6), the “body weight (% initial weight) recovery” value is “faster recovery rate”. For the same compound, the total histology scores result in experiment [2] (1, 3 and 10 mg/kg PO, QD) was “lower”. Moreover, in experiment [2] (1, 3 and 10 mg/kg PO, QD, day -1 to day 6), the “Disease Activity Index (DAI) scores” value is “dose-dependent improvement”. Further, in experiment [2] (setting [7]), the IL-1ß in plasma entry is recorded as “decreased” and the IL-6 in plasma result is “decreased”. The “pathological score (crypt structure failure, inflammatory cell infiltration)” value in experiment [2] (1, 3 and 10 mg/kg PO, QD, H&E colon) is “lower”. Also, the ED50 (as a rule, the dose that gives a 50% effect, or the effect in half of the subjects) in experiment [2] (Mus musculus, 144 h, PO, QD, day -1 to day 6, read-out: dose for half maximal effect or ED50 (DAI score at Day 6)) came to 15 mg/kg. The “colon recovery and mucosal healing” value in experiment [2] (in a dose-dependent manner, prophylactic mode) was “promoted the colon recovery and mucosal healing”. Moreover, in experiment [3], the IFNγ in plasma entry is “statistically significant decreases”, the IL-12p70 in plasma entry is recorded as “statistically significant decreases” and the TNFα in plasma result was “statistically significant decreases”. Also, the inhibition (as a rule, the change of the read-out against control, counted positive when it falls) at 10 µM in experiment [4] was not below 50%.
